Publication PMC5141252, “In silico Screening and Evaluation of the Anticonvulsant Activity of Docosahexaenoic Acid-Like Molecules in Experimental Models of Seizures” (Iranian Biomedical Journal, 2017)
Marks after values point to notes of the source that are not given here.

Legend:
[1] = system: clonic seizures induced by pentylenetetrazole; test: Pentylenetetrazole seizure test; type: in vivo; conditions: mice; for Protection (%): 15 min before PTZ 60 mg/kg i.p.; for ED50 (mM) and 95% CI: PTZ clonic seizures, log-Probit analysis
Description: (§1) All compounds were prepared freshly before administration. The compounds were dissolved in DMSO and then were diluted in artificial cerebrospinal fluid consisting (in mM) 124.0 NaCl, 25 NaHCO3, 10 D-glucose,4.4 KCl, 2 MgSO4, 1.25 KH2PO4, and 2 CaCl2. The final concentration of DMSO was maintained at 10%. The pH of the solutions was adjusted at the range of 7.2-7.4. Doses of the compounds were selected based on the preliminary experiments conducted in our laboratory.
(§2) DHA-like molecules were administered by intracerebroventricular (i.c.v.) route according to the method described earlier. Briefly, a 3.5-mm-long needle (27 Gauge) was connected to a 10-μL Hamilton microsyringe. The site of injection was 2 mm lateral to the midline on a line drawn through the anterior base of the ears and 3.5 mm in depth from the surface of skull skin. The solution was injected at a rate of 10 µL/10 s and the needle left in place for 60 s after injection.
Fifteen minutes after i.c.v. injection of the compounds, PTZ (60 mg/kg) was injected to the mice intraperitoneally (i.p.). This time period was selected based on the time course of DHA anticonvulsant activity in mice[6]. The occurrence of colonic seizures was monitored in animals for 30 min.
(§3) Statistical analysis was performed by SPSS for Windows software version 16.0. Data obtained from the seizure tests were expressed as percentage of the protected mice. Fisher’s exact test was used to analyze the data. The dose of the drugs that produced anticonvulsant effect in 50% of the animals (ED50), and its associated 95% confidence interval, was calculated by log-Probit analysis.

[2] = system: tonic seizures induced by MES; test: Maximal electroshock seizure test; type: in vivo; conditions: mice; for Protection (%): 15 min before MES (50 Hz, 50 mA); for ED50 (mM) and 95% CI: i.c.v., MES tonic seizures, log-Probit analysis
Description: as §1, §2
Fifteen minutes after i.c.v. injection of the compounds, an electrical stimulus (50 Hz, 50 mA, 1 s duration) was delivered to the mice through ear-clip electrodes[6] using a stimulator apparatus (MGH-777, Development of Electronic Industry, Iran).
as §3

[3] = system: clonic seizures induced by pentylenetetrazole; set-up: method as in PMID 26018398; conditions: PTZ test, mice, i.c.v administration; cited from earlier work
[4] = system: tonic seizures induced by MES; set-up: method as in PMID 26018398; conditions: cited from earlier work

Structure (SMILES): CCC(C(=O)O)c1ccccc1 (stereo not shown) [2-Phenylbutyric acid]
- Protection (%) ([1]; dose 0.0001 M i.c.v.): 0%
- Protection (%) ([1]; dose 0.001 M i.c.v.): 30%
- Protection (%) ([1]; dose 0.01 M i.c.v.): 40^b %
- Protection (%) ([1]; dose 0.1 M i.c.v.): 56.6^a %
- ED50 (mM) and 95% CI ([1]; i.c.v.): 70.0 (25.0-144.2) mM

Structure (SMILES): COc1ccc(CC(=O)O)cc1OC [3,4-Dimethoxyphenylacetic acid, 3,4-Dimethoxyphenylacetic acid]
- anticonvulsant activity (in words) ([1]; PTZ and MES seizure tests, i.c.v.): inactive

Structure (SMILES): O=C(O)Cc1ccc(-c2ccccc2)cc1 [4-Biphenylacetic acid]
- Protection (%) ([1]; dose 0.0001 M i.c.v.): 15%
- Protection (%) ([1]; dose 0.001 M i.c.v.): 35%
- Protection (%) ([1]; dose 0.0075 M i.c.v.): 50%
- Protection (%) ([1]; dose 0.01 M i.c.v.): 85^a %
- ED50 (mM) and 95% CI ([1]; i.c.v.): 5.0 (3.0-5.0) mM

Structure (SMILES): O=C(O)CCCc1ccccc1 [4-Phenylbutyric acid]
- Protection (%) ([1]; dose 0.0001 M i.c.v.): 25%
- Protection (%) ([1]; dose 0.001 M i.c.v.): 50^b %
- Protection (%) ([1]; dose 0.01 M i.c.v.): 73.3^a %
- ED50 (mM) and 95% CI ([1]; i.c.v.): 4.0 (0.0-7.0) mM

Structure (SMILES): CC(C)(C)C1CCC(C(=O)O)CC1 (stereo not shown) [4-tert-Butylcyclohexanecarboxylic acid]
- Protection (%) ([2]; dose 0.001 M i.c.v.): 37.5%
- Protection (%) ([2]; dose 0.01 M i.c.v.): 46.6^b %
- Protection (%) ([2]; dose 0.1 M i.c.v.): 73.3^a %
- ED50 (mM) and 95% CI ([2]; listed as 4-tert-Butylcyclo-hexanecarboxylic acid): 637 mM
- ED50 (mM) and 95% CI ([2]; listed as 4-tert-Butylcyclohexane carboxylic acid): 29.0 (0.0-66.0) mM

Structure (SMILES): CC/C=C\C/C=C\C/C=C\C/C=C\C/C=C\C/C=C\CCC(=O)O [DHA, Docosahexaenoic acid]
- ED50 [3]: 0.00013 mM
- inhibition of tonic seizures in the MES model [4]: not able to inhibit tonic seizures

Structure (SMILES): O=C(O)Cc1ccccc1 [Phenylacetic acid]
- Protection (%) ([1]; dose 0.0001 M i.c.v.): 0%
- Protection (%) ([1]; dose 0.001 M i.c.v.): 20%
- Protection (%) ([1]; dose 0.01 M i.c.v.): 30%
- Protection (%) ([1]; dose 0.1 M i.c.v.): 57.5^a %
- ED50 (mM) and 95% CI ([1]; i.c.v.): 78 mM
- ED50 (mM) and 95% CI ([1]; i.c.v., listed as Phenylbutyric acid): 78.0 (46.0-156.0) mM

Structure (SMILES): O=C(O)C1=C[C@@H](O)[C@@H](O)[C@H](O)C1 [Shikimic acid]
- Protection (%) ([2]; dose 0.01 M i.c.v.): 0%
- Protection (%) ([2]; dose 0.1 M i.c.v.): 20.0%
- Protection (%) ([2]; dose 0.5 M i.c.v.): 43.3^b %
- Protection (%) ([2]; dose 1 M i.c.v.): 70.0^a %
- ED50 (mM) and 95% CI [2]: 637.0 (418.0-890.0) mM
- ED50 (mM) and 95% CI ([2]; listed as shikimic acid): 29 mM
